From ChEMBL document CHEMBL4507291 (2021)

Tests used:
[1] = organism: Rattus norvegicus; assay: Inhibition of Glutamate, NMDA, Phencyclidine at 10 µM in the Eurofins-Panlabs radioligand binding assay (Eurofins_assay_233000); assay type: protein-complex assay; conditions: Compound concentration 10.0 uM
[2] = target: Vasopressin V1a receptor (Homo sapiens) (UniProt P37288); conditions: Compound concentration 10.0 uM
[3] = target: T1, Mitogen-activated protein kinase kinase kinase 7 (Homo sapiens) (UniProt O43318); assay: MAP3K7/MAP3K7IP1 (TAK1-TAB1) Kinase screen; conditions: Compound concentration 1.0 uM
T1 sequence (whole entry): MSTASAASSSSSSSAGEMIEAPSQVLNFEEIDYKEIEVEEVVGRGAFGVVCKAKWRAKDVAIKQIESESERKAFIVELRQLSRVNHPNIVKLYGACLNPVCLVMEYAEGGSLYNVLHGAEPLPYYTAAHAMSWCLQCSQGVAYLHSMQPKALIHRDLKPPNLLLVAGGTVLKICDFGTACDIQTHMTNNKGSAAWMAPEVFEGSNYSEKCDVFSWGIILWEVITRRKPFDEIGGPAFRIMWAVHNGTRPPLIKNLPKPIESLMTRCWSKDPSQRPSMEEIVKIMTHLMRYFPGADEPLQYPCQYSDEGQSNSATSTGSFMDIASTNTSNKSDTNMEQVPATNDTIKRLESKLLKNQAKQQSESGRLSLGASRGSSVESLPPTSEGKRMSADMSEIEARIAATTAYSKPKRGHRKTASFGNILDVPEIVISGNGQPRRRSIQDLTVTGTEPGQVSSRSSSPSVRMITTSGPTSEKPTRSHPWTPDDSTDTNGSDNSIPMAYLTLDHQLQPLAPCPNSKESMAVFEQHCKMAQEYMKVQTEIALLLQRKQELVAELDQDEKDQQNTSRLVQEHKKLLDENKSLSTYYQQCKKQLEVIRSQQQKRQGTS

[4] = target: Sodium-dependent dopamine transporter (Homo sapiens) (UniProt Q01959); conditions: Compound concentration 10.0 uM
[5] = target: Serine/threonine-protein kinase MRCK beta (Homo sapiens) (UniProt Q9Y5S2); assay: CDC42 BPB (MRCKB) Kinase screen; conditions: Compound concentration 1.0 uM
Serine/threonine-protein kinase MRCK beta (Homo sapiens), sequence (Q9Y5S2 whole entry): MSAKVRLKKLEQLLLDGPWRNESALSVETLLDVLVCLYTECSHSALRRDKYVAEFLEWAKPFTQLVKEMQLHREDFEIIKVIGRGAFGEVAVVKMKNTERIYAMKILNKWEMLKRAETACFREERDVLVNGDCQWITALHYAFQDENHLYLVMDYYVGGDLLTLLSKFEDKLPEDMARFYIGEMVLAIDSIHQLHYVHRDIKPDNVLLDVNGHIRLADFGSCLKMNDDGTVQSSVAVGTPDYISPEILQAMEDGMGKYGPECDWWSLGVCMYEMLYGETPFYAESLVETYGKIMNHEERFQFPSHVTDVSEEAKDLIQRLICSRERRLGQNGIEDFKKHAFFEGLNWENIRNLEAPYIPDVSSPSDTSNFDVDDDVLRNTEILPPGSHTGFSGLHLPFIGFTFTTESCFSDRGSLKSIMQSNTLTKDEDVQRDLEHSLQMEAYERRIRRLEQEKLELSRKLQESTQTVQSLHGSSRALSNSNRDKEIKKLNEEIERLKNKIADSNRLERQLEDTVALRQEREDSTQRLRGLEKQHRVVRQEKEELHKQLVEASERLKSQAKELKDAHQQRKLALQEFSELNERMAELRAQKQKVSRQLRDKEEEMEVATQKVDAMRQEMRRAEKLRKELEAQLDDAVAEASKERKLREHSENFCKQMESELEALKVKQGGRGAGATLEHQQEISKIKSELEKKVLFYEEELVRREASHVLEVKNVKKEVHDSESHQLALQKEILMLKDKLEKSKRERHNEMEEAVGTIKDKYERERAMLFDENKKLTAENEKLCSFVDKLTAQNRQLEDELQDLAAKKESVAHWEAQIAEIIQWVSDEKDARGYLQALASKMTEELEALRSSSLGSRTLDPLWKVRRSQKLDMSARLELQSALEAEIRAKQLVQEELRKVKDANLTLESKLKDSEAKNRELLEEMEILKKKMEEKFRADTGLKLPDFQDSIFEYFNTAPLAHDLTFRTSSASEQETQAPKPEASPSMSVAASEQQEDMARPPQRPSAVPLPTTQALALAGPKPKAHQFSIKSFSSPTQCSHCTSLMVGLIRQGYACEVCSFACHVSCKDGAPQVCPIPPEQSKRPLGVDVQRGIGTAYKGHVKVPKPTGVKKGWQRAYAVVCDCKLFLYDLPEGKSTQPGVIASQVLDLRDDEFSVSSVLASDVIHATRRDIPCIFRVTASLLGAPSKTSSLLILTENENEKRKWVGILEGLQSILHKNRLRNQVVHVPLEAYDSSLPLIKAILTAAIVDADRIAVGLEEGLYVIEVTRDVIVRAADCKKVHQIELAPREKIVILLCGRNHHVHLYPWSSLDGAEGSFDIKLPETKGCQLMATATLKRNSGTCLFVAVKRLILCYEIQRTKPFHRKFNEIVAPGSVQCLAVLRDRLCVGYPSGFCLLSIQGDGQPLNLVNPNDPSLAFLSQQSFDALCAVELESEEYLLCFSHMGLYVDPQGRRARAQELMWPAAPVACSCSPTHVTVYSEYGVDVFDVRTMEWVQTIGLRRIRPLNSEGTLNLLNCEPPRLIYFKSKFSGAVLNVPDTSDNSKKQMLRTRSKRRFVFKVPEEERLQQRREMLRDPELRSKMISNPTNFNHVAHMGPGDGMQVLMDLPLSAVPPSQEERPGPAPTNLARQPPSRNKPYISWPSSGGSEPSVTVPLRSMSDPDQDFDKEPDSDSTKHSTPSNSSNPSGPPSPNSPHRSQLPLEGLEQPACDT

[6] = target: Retinoic acid receptor RXR-alpha (Homo sapiens) (UniProt P19793); assay: Retinoid X Receptor RXRalpha Eurofins-Panlabs radioligand binding assay; conditions: Compound concentration 10.0 uM
Retinoic acid receptor RXR-alpha (Homo sapiens), sequence (P19793 whole entry): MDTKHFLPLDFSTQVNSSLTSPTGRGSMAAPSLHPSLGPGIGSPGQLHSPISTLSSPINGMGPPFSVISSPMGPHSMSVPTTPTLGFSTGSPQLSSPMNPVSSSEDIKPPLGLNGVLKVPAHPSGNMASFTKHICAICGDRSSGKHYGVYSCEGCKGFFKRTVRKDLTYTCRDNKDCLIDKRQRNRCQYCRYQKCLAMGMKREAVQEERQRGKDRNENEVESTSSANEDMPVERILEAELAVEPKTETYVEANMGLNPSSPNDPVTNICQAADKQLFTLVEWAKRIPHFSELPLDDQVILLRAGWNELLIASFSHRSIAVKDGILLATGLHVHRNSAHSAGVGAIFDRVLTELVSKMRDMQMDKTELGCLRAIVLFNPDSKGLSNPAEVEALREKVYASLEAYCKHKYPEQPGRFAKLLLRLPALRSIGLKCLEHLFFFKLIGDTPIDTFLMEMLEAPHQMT

[7] = target: Serine/threonine-protein kinase PLK1 (Homo sapiens) (UniProt P53350); assay: PLK1 Kinase screen; conditions: Compound concentration 1.0 uM
Serine/threonine-protein kinase PLK1 (Homo sapiens), sequence (P53350 whole entry): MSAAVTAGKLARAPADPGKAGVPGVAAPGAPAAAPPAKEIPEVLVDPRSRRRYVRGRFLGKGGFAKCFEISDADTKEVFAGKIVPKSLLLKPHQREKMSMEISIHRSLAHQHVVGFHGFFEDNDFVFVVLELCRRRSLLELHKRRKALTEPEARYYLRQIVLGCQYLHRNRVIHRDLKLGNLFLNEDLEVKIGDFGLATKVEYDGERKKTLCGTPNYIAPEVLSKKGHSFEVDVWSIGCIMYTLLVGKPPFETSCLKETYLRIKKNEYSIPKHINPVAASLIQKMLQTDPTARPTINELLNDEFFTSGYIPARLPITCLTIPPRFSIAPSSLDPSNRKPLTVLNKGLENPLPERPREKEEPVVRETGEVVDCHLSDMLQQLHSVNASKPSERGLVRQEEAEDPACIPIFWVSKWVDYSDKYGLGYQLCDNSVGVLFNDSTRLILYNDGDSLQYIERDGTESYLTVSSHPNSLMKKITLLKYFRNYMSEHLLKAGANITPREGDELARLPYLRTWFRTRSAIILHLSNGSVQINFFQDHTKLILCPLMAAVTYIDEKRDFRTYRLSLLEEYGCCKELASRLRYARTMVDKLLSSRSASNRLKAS

[8] = target: Prostaglandin G/H synthase 1 (Homo sapiens) (UniProt P23219); assay: Inhibition of Cyclooxygenase COX-1 at compound concentration of 10.0 uM in the Eurofins-Panlabs enzyme assay (Eurofins_assay_116020); conditions: Compound concentration 10.0 uM
Prostaglandin G/H synthase 1 (Homo sapiens), sequence (P23219 whole entry): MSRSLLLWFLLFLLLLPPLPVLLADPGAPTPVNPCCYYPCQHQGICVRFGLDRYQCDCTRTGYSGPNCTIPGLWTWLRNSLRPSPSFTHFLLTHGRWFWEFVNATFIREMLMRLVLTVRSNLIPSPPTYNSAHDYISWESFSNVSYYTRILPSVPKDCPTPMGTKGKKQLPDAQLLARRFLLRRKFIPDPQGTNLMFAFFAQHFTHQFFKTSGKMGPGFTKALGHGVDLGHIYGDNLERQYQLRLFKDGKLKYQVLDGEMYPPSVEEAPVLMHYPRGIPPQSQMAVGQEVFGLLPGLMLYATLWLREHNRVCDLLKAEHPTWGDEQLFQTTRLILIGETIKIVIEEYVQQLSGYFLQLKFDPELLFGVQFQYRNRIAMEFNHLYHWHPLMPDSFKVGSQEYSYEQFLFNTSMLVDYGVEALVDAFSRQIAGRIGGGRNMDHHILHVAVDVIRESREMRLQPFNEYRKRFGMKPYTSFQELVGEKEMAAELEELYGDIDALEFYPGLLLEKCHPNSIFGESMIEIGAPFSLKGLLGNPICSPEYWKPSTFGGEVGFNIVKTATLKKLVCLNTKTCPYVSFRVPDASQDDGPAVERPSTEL

[9] = target: Phosphatidylinositol 3-kinase catalytic subunit type 3 (Homo sapiens) (UniProt Q8NEB9); assay: PIK3C3 (hVPS34) Kinase screen; conditions: Compound concentration 1.0 uM
Phosphatidylinositol 3-kinase catalytic subunit type 3 (Homo sapiens), sequence (Q8NEB9 whole entry): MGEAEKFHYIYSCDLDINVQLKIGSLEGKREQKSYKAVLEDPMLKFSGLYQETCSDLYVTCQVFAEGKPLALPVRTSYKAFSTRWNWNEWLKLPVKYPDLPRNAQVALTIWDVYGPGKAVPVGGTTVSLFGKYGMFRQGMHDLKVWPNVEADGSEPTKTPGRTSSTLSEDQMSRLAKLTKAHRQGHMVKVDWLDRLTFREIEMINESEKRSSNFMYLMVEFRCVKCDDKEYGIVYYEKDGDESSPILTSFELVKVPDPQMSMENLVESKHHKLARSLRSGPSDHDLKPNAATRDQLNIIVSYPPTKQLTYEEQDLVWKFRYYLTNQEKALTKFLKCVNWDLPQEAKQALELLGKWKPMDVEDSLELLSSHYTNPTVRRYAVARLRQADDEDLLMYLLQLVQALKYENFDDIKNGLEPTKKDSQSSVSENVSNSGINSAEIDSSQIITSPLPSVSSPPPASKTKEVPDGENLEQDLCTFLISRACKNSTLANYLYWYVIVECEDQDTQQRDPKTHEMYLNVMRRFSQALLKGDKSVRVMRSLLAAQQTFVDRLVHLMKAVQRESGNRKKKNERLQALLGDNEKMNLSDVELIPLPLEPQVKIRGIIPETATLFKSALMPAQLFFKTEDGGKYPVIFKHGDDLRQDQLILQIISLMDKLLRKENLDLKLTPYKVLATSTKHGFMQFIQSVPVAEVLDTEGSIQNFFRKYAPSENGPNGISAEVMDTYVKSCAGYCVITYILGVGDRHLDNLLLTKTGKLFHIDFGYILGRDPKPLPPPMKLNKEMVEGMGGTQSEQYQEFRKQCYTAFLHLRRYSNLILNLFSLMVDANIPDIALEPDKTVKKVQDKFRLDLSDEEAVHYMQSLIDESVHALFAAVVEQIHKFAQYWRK

[10] = target: T2, Muscarinic acetylcholine receptor M5 (Homo sapiens) (UniProt P08912); assay: Inhibition of Muscarinic M5 at 10 µM in the Eurofins-Panlabs radioligand binding assay (Eurofins_assay_253010); parameters: ligand concentration 0.8 nM; conditions: Compound concentration 10.0 uM
T2 sequence (whole entry): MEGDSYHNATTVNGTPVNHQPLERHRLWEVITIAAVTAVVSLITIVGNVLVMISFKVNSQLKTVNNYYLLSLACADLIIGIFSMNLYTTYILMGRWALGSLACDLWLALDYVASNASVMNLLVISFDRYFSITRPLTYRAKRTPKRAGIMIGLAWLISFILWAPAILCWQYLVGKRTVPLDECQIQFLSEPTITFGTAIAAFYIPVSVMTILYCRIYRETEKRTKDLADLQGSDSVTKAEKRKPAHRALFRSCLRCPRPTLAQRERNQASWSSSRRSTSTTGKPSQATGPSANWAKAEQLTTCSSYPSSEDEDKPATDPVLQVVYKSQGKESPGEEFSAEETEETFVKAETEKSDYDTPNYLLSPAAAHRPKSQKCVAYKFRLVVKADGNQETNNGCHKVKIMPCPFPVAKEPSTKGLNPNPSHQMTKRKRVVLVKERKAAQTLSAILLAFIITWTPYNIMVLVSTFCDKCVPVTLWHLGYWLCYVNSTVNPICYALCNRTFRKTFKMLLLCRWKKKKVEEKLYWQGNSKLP

[11] = target: 5-hydroxytryptamine receptor 2A (Homo sapiens) (UniProt P28223); conditions: Compound concentration 10.0 uM
[12] = target: T3, Serine/threonine-protein kinase D1 (Homo sapiens) (UniProt Q15139); assay: PRKD1 (PKC mu) Kinase screen; conditions: Compound concentration 1.0 uM
T3 sequence (whole entry): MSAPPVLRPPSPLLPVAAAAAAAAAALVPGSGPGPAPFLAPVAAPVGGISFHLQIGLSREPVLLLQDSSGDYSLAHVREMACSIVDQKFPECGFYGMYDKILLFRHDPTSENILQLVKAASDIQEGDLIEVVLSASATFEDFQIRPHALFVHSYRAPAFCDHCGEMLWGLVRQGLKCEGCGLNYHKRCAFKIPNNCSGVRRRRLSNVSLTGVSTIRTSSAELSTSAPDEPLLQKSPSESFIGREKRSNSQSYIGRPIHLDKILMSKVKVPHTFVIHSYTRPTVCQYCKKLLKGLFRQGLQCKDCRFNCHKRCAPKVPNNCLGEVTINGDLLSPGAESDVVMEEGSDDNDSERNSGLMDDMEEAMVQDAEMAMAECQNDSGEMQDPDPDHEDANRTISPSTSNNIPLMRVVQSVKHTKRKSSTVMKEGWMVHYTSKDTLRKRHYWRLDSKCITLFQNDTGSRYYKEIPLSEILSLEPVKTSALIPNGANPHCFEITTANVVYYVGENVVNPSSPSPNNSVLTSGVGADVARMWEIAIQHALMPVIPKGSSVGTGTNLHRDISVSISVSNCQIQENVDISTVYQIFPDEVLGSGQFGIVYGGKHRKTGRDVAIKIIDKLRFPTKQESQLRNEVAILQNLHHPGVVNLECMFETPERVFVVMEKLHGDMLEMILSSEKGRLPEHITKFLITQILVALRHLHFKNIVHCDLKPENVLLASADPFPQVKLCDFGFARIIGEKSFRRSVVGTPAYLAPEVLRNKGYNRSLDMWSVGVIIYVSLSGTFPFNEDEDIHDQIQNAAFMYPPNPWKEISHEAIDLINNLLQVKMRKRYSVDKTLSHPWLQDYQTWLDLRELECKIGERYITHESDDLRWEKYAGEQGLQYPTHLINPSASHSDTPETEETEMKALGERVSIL

[13] = target: Neuropeptide Y receptor type 1 (Homo sapiens) (UniProt P25929); assay: Inhibition of Neuropeptide Y Y1 at 10 µM in the Eurofins-Panlabs radioligand binding assay (Eurofins_assay_257010); conditions: Compound concentration 10.0 uM
Neuropeptide Y receptor type 1 (Homo sapiens), sequence (P25929 whole entry): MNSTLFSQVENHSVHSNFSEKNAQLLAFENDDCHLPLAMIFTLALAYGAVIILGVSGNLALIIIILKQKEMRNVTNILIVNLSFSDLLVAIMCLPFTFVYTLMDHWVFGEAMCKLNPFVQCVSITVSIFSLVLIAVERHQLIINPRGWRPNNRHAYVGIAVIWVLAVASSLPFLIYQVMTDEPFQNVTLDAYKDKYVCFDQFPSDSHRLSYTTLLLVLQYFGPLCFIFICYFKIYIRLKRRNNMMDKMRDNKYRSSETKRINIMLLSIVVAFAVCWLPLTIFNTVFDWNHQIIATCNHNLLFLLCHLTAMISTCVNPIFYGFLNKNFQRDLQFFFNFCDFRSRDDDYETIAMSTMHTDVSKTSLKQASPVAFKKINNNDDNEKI

[14] = target: RAC-gamma serine/threonine-protein kinase (Homo sapiens) (UniProt Q9Y243); assay: AKT3 (PKB gamma) Kinase screen; conditions: Compound concentration 1.0 uM
[15] = target: Receptor tyrosine-protein kinase erbB-4 (Homo sapiens) (UniProt Q15303); assay: ERBB4 (HER4) Kinase screen; conditions: Compound concentration 1.0 uM
[16] = target: Alpha-1B adrenergic receptor (Homo sapiens) (UniProt P35368); conditions: Compound concentration 10.0 uM

Measured: inhibition

Vasopressin V1a receptor (Homo sapiens), sequence (P37288 whole entry, looked up): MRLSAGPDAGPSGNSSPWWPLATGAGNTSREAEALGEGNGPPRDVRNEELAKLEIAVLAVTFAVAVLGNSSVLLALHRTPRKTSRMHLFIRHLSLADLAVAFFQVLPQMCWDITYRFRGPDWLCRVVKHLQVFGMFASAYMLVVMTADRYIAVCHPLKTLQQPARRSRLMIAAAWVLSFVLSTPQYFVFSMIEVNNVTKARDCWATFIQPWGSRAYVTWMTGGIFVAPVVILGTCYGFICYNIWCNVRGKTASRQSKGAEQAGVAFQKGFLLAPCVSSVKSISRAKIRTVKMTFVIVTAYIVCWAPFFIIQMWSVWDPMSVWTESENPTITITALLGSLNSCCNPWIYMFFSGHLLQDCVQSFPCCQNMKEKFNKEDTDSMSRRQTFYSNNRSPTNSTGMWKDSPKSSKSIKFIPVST

C[C@@H]1CN(c2cc(-c3n[nH]c4ccc(OC5(C)CC5)cc34)ncn2)C[C@H](C)O1 [MLi-2]
inactive: [1] -1% | [2] -9% | [3] -4.42% | [4] 16% | [5] 4.34% | [6] 4% | [7] 7.54% | [8] 9% | [9] 19.4% | [10] -8% | [11] 6% | [12] 13.2% | [13] 0% | [14] 7.75% | [15] 11.9%

C[C@@H]1CN(c2cc(-c3nn(C)c4ccc(OC5(C)CC5)cc34)ncn2)C[C@H](C)O1 [MLi-2-NC]
inactive: [16] 3.72%
